± gives the standard deviation of the averaged measurements.
Key:
Assay in all cases: level (log10 ratio to DMSO vehicle control); higher = higher biomarker level / cell amount than vehicle control
Settings in all cases: in DMSO
[1] = compound: O=C(O)C(F)(F)C(F)(F)C(F)(F)C(=O)O [Hexafluoroglutaric acid]
Method: (§1)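 BioMAP Diversity Plus panel of 12 human primary cell co-culture systems (3C, 4H, LPS, SAg, BT, BF4T, BE3C, CASM3C, HDF3CGF, KF3CT, MyoF, Mphg). Compounds were added 1 h before stimulation and left for 24 h (MyoF 48 h; BT 72 h for soluble read-outs or 6 d for IgG). Biomarkers were read by ELISA, cytotoxicity by SRB, PBMC viability and proliferation by Alamar Blue. Each well value was divided by the mean of 8 DMSO control wells on the same plate and log10 transformed; duplicate blinded samples were tested at 4 concentrations.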

[2] = compound: CC(C)(C)C(=O)CC(=O)C(F)(F)C(F)(F)C(F)(F)F [(Heptafluorobutanoyl)pivaloylmethane]
Method: as §1

[3] = compound: NC(=O)C(F)(F)C(F)(F)C(F)(F)C(F)(F)C(F)(F)C(F)(F)C(F)(F)F [Perfluorooctanamide]
Method: as §1

[4] = compound: CCCCCCCCC(F)(F)C(F)(F)C(F)(F)C(F)(F)C(F)(F)C(F)(F)F [1-(Perfluorohexyl)octane]
Method: as §1

[5] = compound: CNS(=O)(=O)C(F)(F)C(F)(F)C(F)(F)C(F)(F)C(F)(F)C(F)(F)C(F)(F)C(F)(F)F [N-Methylperfluorooctanesulfonamide]
Method: as §1

[6] = compound: O=C(O)CCC(F)(F)C(F)(F)C(F)(F)C(F)(F)C(F)(F)F [2H,2H,3H,3H-Perfluorooctanoic acid]
Method: as §1

[7] = compound: N=C(N)C(F)(F)C(F)(F)C(F)(F)C(F)(F)C(F)(F)C(F)(F)C(F)(F)F [Perfluorooctanamidine]
Method: as §1

| Test System | level (log10) ([1]; 6700 nM) | level (log10) ([1]; 20000 nM) | level (log10) ([1]; 60000 nM) | level (log10) ([2]; 6700 nM) | level (log10) ([2]; 20000 nM) | level (log10) ([2]; 60000 nM) | level (log10) ([3]; 6700 nM) | level (log10) ([3]; 20000 nM) | level (log10) ([3]; 60000 nM) | level (log10) ([4]; 6700 nM) | level (log10) ([4]; 20000 nM) | level (log10) ([5]; 6700 nM) | level (log10) ([5]; 20000 nM) | level (log10) ([5]; 60000 nM) | level (log10) ([6]; 6700 nM) | level (log10) ([6]; 20000 nM) | level (log10) ([6]; 60000 nM) | level (log10) ([7]; 6700 nM) | level (log10) ([7]; 20000 nM) | level (log10) ([7]; 60000 nM) |
| --- | --- | --- | --- | --- | --- | --- | --- | --- | --- | --- | --- | --- | --- | --- | --- | --- | --- | --- | --- | --- |
| BE3C:CD87/uPAR | -0.0045 ± 0.0092 | -0.01 ± 0.014 | -0.0125 ± 0.011 | 0.0035 ± 0.032 | 0.0235 ± 0.0078 | -0.0045 ± 0.005 | -0.0475 ± 0.0035 | -0.0065 ± 0.035 | -0.004 ± 0.028 | 0.0085 ± 0.00071 | 0.017 ± 0.0099 | 0.0125 ± 0.015 | 0.0575 ± 0.061 | 0.083 ± 0.011 | -0.0085 ± 0.0064 | 0.005 ± 0.033 | 0.0255 ± 0.037 | -0.001 ± 0.014 | -0.0035 ± 0.057 | 0.083 |
| BE3C:CXCL8/IL-8 | -0.011 ± 0.014 | -0.0165 ± 0.0064 | -0.011 ± 0.02 | -0.0095 ± 0.018 | -0.015 ± 0.021 | -0.017 ± 0.076 | 0.011 ± 0.0028 | 0.011 ± 0.0071 | -0.0045 ± 0.005 | 0.0125 ± 0.052 | 0.068 ± 0.024 | -0.112 ± 0.0021 | -0.118 ± 0.0042 | -0.2 ± 0.078 | 0.033 ± 0.042 | 0.004 ± 0.041 | 0.0035 ± 0.036 | 0.029 ± 0.042 | -0.026 ± 0.061 | -0.034 |
| BE3C:CXCL9/MIG | 0.001 ± 0.0042 | 0.008 | -0.0055 ± 0.0021 | -0.0045 ± 0.0035 | -0.0025 ± 0.0064 | -0.0005 ± 0.0064 | 0.0075 ± 0.028 | 0.0025 ± 0.019 | 0.012 ± 0.011 | 0.0055 ± 0.0035 | 0.0015 ± 0.0021 | 0.0125 ± 0.016 | 0.009 ± 0.018 | 0.021 ± 0.028 | -0.003 | -0.008 ± 0.0057 | 0.0005 ± 0.0035 | 0.0135 ± 0.018 | 0.0085 ± 0.0092 | 0.037 |
| BE3C:CXCL10/IP-10 | -0.001 ± 0.0042 | -0.0085 ± 0.00071 | 0.0015 ± 0.023 | 0.006 ± 0.024 | -0.0025 ± 0.022 | -0.0055 ± 0.019 | -0.0025 ± 0.028 | -0.005 ± 0.0071 | -0.0135 ± 0.015 | 0.0055 ± 0.013 | -0.0025 ± 0.012 | -0.0415 ± 0.026 | -0.0475 ± 0.0064 | -0.0795 ± 0.049 | -0.009 ± 0.0042 | -0.006 ± 0.0028 | -0.0075 ± 0.005 | 0.0045 ± 0.023 | -0.0055 ± 0.0035 | 0.003 |
| BE3C:CXCL11/I-TAC | 0.0045 ± 0.028 | -0.002 ± 0.024 | 0.0045 ± 0.013 | -0.0005 ± 0.04 | 0.01 ± 0.037 | 0.024 ± 0.028 | 0.0015 ± 0.013 | 0.004 ± 0.0042 | 0 ± 0.0014 | 0.003 ± 0.016 | -0.0035 ± 0.0021 | -0.03 ± 0.0099 | -0.0165 ± 0.018 | -0.043 ± 0.0028 | 0.0305 ± 0.016 | 0.0535 ± 0.012 | 0.036 ± 0.014 | -0.0055 ± 0.0078 | -0.014 ± 0.016 | -0.014 |
| BE3C:EGFR | -0.0055 ± 0.0035 | -0.0175 ± 0.005 | 0.0025 ± 0.012 | 0.0095 ± 0.016 | -0.0055 ± 0.023 | -0.0175 ± 0.00071 | 0.012 ± 0.011 | -0.002 ± 0.0085 | 0.035 ± 0.016 | -0.001 ± 0.0042 | -0.013 ± 0.0028 | 0.001 ± 0.0057 | -0.0005 ± 0.0064 | -0.0305 ± 0.026 | -0.004 ± 0.0042 | -0.0225 ± 0.029 | -0.008 ± 0.0099 | -0.009 ± 0.0014 | -0.013 ± 0.014 | -0.022 |
| BE3C:HLA-DR | -0.006 | -0.017 ± 0.0014 | -0.021 ± 0.028 | 0.0115 ± 0.0021 | 0.01 ± 0.0042 | -0.017 ± 0.0057 | 0.001 ± 0.017 | -0.0035 ± 0.0078 | 0.0025 ± 0.0092 | 0.0095 ± 0.036 | 0.0015 ± 0.005 | -0.0225 ± 0.0064 | -0.0445 ± 0.012 | -0.039 ± 0.041 | 0 ± 0.0042 | -0.009 ± 0.0071 | -0.0175 ± 0.012 | -0.0015 ± 0.018 | -0.003 ± 0.021 | -0.01 |
| BE3C:IL-1alpha | -0.014 ± 0.027 | -0.0295 ± 0.005 | -0.0045 ± 0.016 | -0.0015 ± 0.021 | -0.0035 ± 0.0035 | -0.003 ± 0.021 | -0.015 ± 0.011 | -0.003 ± 0.0042 | 0.0045 ± 0.0064 | 0.001 ± 0.02 | 0.0415 ± 0.044 | 0.0325 ± 0.005 | 0.042 ± 0.013 | 0.0695 ± 0.005 | -0.0075 ± 0.0064 | -0.0125 ± 0.019 | -0.005 | 0.0065 ± 0.026 | 0.002 ± 0.0028 | 0.047 |
| BF4T:CCL2/MCP-1 | 0.0015 ± 0.043 | -0.0225 ± 0.005 | 0.0085 ± 0.032 | -0.0085 ± 0.0064 | 0.004 ± 0.038 | -0.223 ± 0.34 | 0.011 ± 0.0042 | -0.0015 ± 0.0035 | -0.009 ± 0.037 | -0.014 ± 0.028 | 0.0175 ± 0.005 | -0.022 ± 0.011 | -0.049 ± 0.025 | -0.0785 ± 0.083 | 0.0285 ± 0.015 | -0.011 ± 0.031 | -0.0235 ± 0.096 | 0.031 ± 0.0099 | 0.025 ± 0.045 | 0.06 |
| BF4T:CCL26/Eotaxin-3 | 0.016 ± 0.054 | 0.0055 ± 0.042 | 0.043 ± 0.011 | 0.009 ± 0.048 | -0.0205 ± 0.032 | -0.0065 ± 0.0064 | 0.016 ± 0.017 | -0.0015 ± 0.057 | -0.0475 ± 0.0064 | 0.015 ± 0.051 | 0.0015 ± 0.054 | -0.203 ± 0.005 | -0.199 ± 0.015 | -0.196 ± 0.047 | -0.0305 ± 0.013 | -0.0615 ± 0.029 | -0.0695 ± 0.11 | 0.0375 ± 0.044 | -0.0585 ± 0.026 | -0.106 |
| BF4T:CD54/ICAM-1 | 0.0025 ± 0.005 | -0.01 ± 0.0057 | 0.006 ± 0.011 | -0.006 ± 0.0014 | -0.0145 ± 0.005 | -0.0155 ± 0.015 | -0.0175 ± 0.0064 | -0.006 ± 0.014 | -0.015 ± 0.0028 | 0.0005 ± 0.005 | -0.0085 ± 0.023 | 0.009 ± 0.024 | 0.013 ± 0.0085 | 0.028 ± 0.011 | -0.0175 ± 0.018 | -0.0115 ± 0.0021 | -0.0075 ± 0.0092 | -0.001 ± 0.0085 | -0.006 ± 0.017 | 0.039 |
| BF4T:CD90 | 0.0025 ± 0.0092 | 0.009 ± 0.0042 | 0.0175 ± 0.005 | -0.0065 ± 0.012 | -0.0015 ± 0.0035 | 0.004 ± 0.0028 | -0.0065 ± 0.0021 | -0.0035 ± 0.021 | -0.0155 ± 0.0035 | -0.004 ± 0.0028 | -0.013 ± 0.0071 | -0.006 ± 0.0042 | -0.005 | -0.0065 ± 0.0078 | -0.018 ± 0.011 | -0.019 ± 0.0014 | -0.02 ± 0.02 | 0.0025 ± 0.015 | -0.0115 ± 0.005 | 0.042 |
| BF4T:CD106/VCAM-1 | -0.0055 ± 0.023 | -0.0095 ± 0.0078 | -0.002 ± 0.017 | 0.0075 ± 0.015 | -0.002 ± 0.0042 | -0.005 | -0.009 ± 0.02 | 0 ± 0.0099 | -0.0005 ± 0.03 | 0.005 ± 0.051 | -0.0025 ± 0.035 | -0.0235 ± 0.023 | -0.0335 ± 0.0092 | 0.0175 ± 0.071 | -0.011 ± 0.024 | -0.03 ± 0.0057 | -0.007 ± 0.093 | 0.0325 ± 0.0092 | 0.018 ± 0.052 | 0.021 |
| BF4T:CXCL8/IL-8 | 0.0125 ± 0.039 | 0.009 ± 0.041 | 0.0345 ± 0.0035 | -0.0045 ± 0.035 | -0.002 ± 0.0085 | 0.0175 ± 0.029 | -0.0035 ± 0.013 | -0.0005 ± 0.026 | -0.0025 ± 0.03 | -0.0005 ± 0.00071 | 0.008 ± 0.023 | -0.045 ± 0.03 | -0.034 ± 0.028 | -0.14 ± 0.03 | 0.0095 ± 0.035 | 0.033 ± 0.047 | 0.0645 ± 0.043 | 0.0025 ± 0.016 | 0.002 ± 0.034 | 0 |
| BF4T:IL-1alpha | -0.0065 ± 0.015 | -0.0195 ± 0.0035 | -0.0045 ± 0.033 | 0.007 ± 0.011 | -0.0225 ± 0.011 | -0.028 ± 0.017 | 0.008 ± 0.0099 | 0.003 ± 0.017 | -0.001 ± 0.024 | -0.017 ± 0.018 | 0.012 ± 0.02 | 0.0065 ± 0.0078 | 0.0005 ± 0.015 | 0.0285 ± 0.049 | -0.0035 ± 0.0078 | -0.0065 ± 0.016 | 0.017 ± 0.021 | -0.003 ± 0.0085 | -0.017 ± 0.0014 | 0.042 |

Reference: the supplement of paper PMC10331698
